Consider 16 compounds from PubChem BioAssay AID296 (DTP/NCI, 2004).

SMILES strings stand for the structures. Values joined by “and” are separate entries in the source; they are usually repeats but may differ in a detail not shown here. Equal values may be shown once. Inconclusive results are not listed.

The test system of the assay is MX-1 breast xenograft, nude mice, tumor weight T/C. The experiment in a line: NCI In Vivo Anticancer Drug Screen. Data for tumor model Human Mammary Carcinoma MX-1 Xenograft (intrarenal inoculation) in NU/NU Swiss (nude) mice. Conditions: endpoint: mean tumor weight change, higher = larger tumour. The procedure, abridged: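 Read-out: treated (T) over vehicle control (C) ratio of survival or tumor size. Dosing in animals carrying the transplanted tumor.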

Where [1] appears, read: dose: 100.0 mg/kg/injection, schedule: Q01DX010 (sc), vehicle: saline with Tween-80.
Where [2] appears, read: dose: 200.0 mg/kg/injection, schedule: Q01DX010 (sc), vehicle: saline with Tween-80.
The mark [3] stands for this setting: dose: 400.0 mg/kg/injection, schedule: Q01DX010 (sc), vehicle: saline with Tween-80.
The mark [4] stands for this setting: dose: 300.0 mg/kg/injection, schedule: Q04DX003 (sc), vehicle: saline with Tween-80.
The mark [5] stands for this setting: dose: 600.0 mg/kg/injection, schedule: Q04DX003 (sc), vehicle: saline with Tween-80.
Setting [6] is: dose: 1200.0 mg/kg/injection, schedule: Q04DX003 (sc), vehicle: saline with Tween-80.

With `CC(C)(C)c1ccc(CN2CCN(C(c3ccccc3)c3ccc(Cl)cc3)CC2)cc1` (stereo unspecified), the T/C (dose: 4.5 mg/kg/injection, schedule: Q01DX010 (sc), vehicle: Klucel (hydroxypropylcellulose) (HPC)) is 96 % of control; the T/C (dose: 9.0 mg/kg/injection, schedule: Q01DX010 (sc), vehicle: Klucel (hydroxypropylcellulose) (HPC)) is 101 % of control; the T/C (dose: 18.0 mg/kg/injection, schedule: Q01DX010 (sc), vehicle: Klucel (hydroxypropylcellulose) (HPC)) was 117 % of control; the T/C (dose: 36.0 mg/kg/injection, schedule: Q01DX010 (sc), vehicle: Klucel (hydroxypropylcellulose) (HPC)) is 101 % of control; the T/C (dose: 300.0 mg/kg/injection, schedule: Q04DX003 (sc), vehicle: Klucel (hydroxypropylcellulose) (HPC)) was 102 % of control; the T/C (dose: 600.0 mg/kg/injection, schedule: Q04DX003 (sc), vehicle: Klucel (hydroxypropylcellulose) (HPC)) is 106 % of control. Besides, for the setting “dose: 1200.0 mg/kg/injection, schedule: Q04DX003 (sc), vehicle: Klucel (hydroxypropylcellulose) (HPC)”, the T/C is 100 % of control.

In the case of `OCC1OC(n2cnc3cncnc32)C(O)C1O` (stereo unspecified), the T/C by setting is: (dose: 12.5 mg/kg/injection, schedule: Q04DX003 (sc), vehicle: saline) 90 % of control; (dose: 25.0 mg/kg/injection, schedule: Q04DX003 (sc), vehicle: saline) 106 % of control; (dose: 50.0 mg/kg/injection, schedule: Q04DX003 (sc), vehicle: saline) 78 % of control.

Consider `O=CNCO`, for which the T/C is, setting by setting: (dose: 300.0 mg/kg/injection, schedule: Q01DX010 (sc), vehicle: water) 111 % of control; (dose: 600.0 mg/kg/injection, schedule: Q01DX010 (sc), vehicle: water) 62 % of control; (dose: 1200.0 mg/kg/injection, schedule: Q01DX010 (sc), vehicle: water) 37 % of control; (dose: 2000.0 mg/kg/injection, schedule: Q01DX010 (sc), vehicle: water) 5 % of control.

`CCOC(=O)c1ccc(NC(=O)Nc2nccs2)cc1`: the T/C (dose: 25.0 mg/kg/injection, schedule: Q01DX010 (sc), vehicle: saline with Tween-80) is 100 % of control; the T/C under setting [1] was 97 % of control and 108 % of control; the T/C under setting [2] was 63 % of control; the T/C under setting [3] is 186 % of control.

Turning to `C[C@H](N)C(=O)N[C@@H]1[C@H]2C(=C(O)C[C@@H](O)[C@@H]2O)C(=O)O[C@@H]1C`, the T/C (dose: 300.0 mg/kg/injection, schedule: Q04DX003 (sc), vehicle: saline) was 81 % of control; the T/C (dose: 600.0 mg/kg/injection, schedule: Q04DX003 (sc), vehicle: saline) is 67 % of control; the T/C (dose: 1200.0 mg/kg/injection, schedule: Q04DX003 (sc), vehicle: saline) is 88 % of control; the T/C (dose: 2400.0 mg/kg/injection, schedule: Q04DX003 (sc), vehicle: saline) is 99 % of control.

`CCCCCCCCCCCCCCCCS(=O)CC(O)COC(=O)c1ccc(C(=O)OCC(O)CS(=O)CCCCCCCCCCCCCCCC)cc1` (stereo unspecified): the T/C runs as follows: (dose: 50.0 mg/kg/injection, schedule: Q01DX010 (sc), vehicle: saline + Tween-80 + alcohol) 58 % of control; (dose: 100.0 mg/kg/injection, schedule: Q01DX010 (sc), vehicle: saline + Tween-80 + alcohol) 115 % of control; (dose: 200.0 mg/kg/injection, schedule: Q01DX010 (sc), vehicle: saline + Tween-80 + alcohol) 100 % of control; (dose: 400.0 mg/kg/injection, schedule: Q01DX010 (sc), vehicle: saline + Tween-80 + alcohol) 82 % of control.

For the compound `COc1cc(NCc2ccc3nc(N)nc(N)c3c2C)cc(OC)c1OC` (tested in a mixture with another compound), the T/C is 92 % of control (dose: 10.0 mg/kg/injection, schedule: Q04DX003 (ip), vehicle: water); 100 % of control (dose: 20.0 mg/kg/injection, schedule: Q04DX003 (ip), vehicle: water); 101 % of control (dose: 40.0 mg/kg/injection, schedule: Q04DX003 (ip), vehicle: water); 115 % of control (dose: 80.0 mg/kg/injection, schedule: Q04DX003 (ip), vehicle: water); 70 % of control (dose: 160.0 mg/kg/injection, schedule: Q04DX003 (ip), vehicle: water).

For `CCC(C(=O)O)C(=O)O.[NH-]CC1CCCC[N-]1.[Pt+2]`, the T/C was 51 % of control (dose: 100.0 mg/kg/injection, schedule: Q04DX003 (sc), vehicle: saline); -98 % of control (dose: 200.0 mg/kg/injection, schedule: Q04DX003 (sc), vehicle: saline with Tween-80); 20 % of control (dose: 200.0 mg/kg/injection, schedule: Q04DX003 (sc), vehicle: saline); -98 % of control under setting [4]; 14 % of control and 26 % of control (dose: 300.0 mg/kg/injection, schedule: Q04DX003 (sc), vehicle: suspension in saline); -100 % of control (dose: 400.0 mg/kg/injection, schedule: Q04DX003 (sc), vehicle: saline with Tween-80). Besides, the T/C is 2 % of control (dose: 400.0 mg/kg/injection, schedule: Q04DX003 (sc), vehicle: saline); 28 % of control and 32 % of control (dose: 400.0 mg/kg/injection, schedule: Q04DX003 (sc), vehicle: suspension in saline); -100 % of control (dose: 500.0 mg/kg/injection, schedule: Q04DX003 (sc), vehicle: saline with Tween-80); 3 % of control and 20 % of control (dose: 500.0 mg/kg/injection, schedule: Q04DX003 (sc), vehicle: suspension in saline).

For the compound `COc1ccc2c(c1)CCC(c1ccccc1)=C2c1ccc(OCCN2CCCC2)cc1`, the T/C is 79 % of control (dose: 25.0 mg/kg/injection, schedule: Q04DX003 (sc), vehicle: Klucel (hydroxypropylcellulose) (HPC)); 72 % of control (dose: 50.0 mg/kg/injection, schedule: Q04DX003 (sc), vehicle: Klucel (hydroxypropylcellulose) (HPC)); 70 % of control (dose: 100.0 mg/kg/injection, schedule: Q04DX003 (sc), vehicle: Klucel (hydroxypropylcellulose) (HPC)); 67 % of control (dose: 200.0 mg/kg/injection, schedule: Q04DX003 (sc), vehicle: Klucel (hydroxypropylcellulose) (HPC)).

Take `CO[C@H]1Nc2c(ccc(C)c2O)C(=O)N2C=C(/C=C/C(N)=O)C[C@@H]12`: the T/C by setting is: (dose: 0.5 mg/kg/injection, schedule: Q04DX003 (sc), vehicle: saline + alcohol) 18 % of control and 40 % of control; (dose: 2.0 mg/kg/injection, schedule: Q04DX003 (sc), vehicle: saline + alcohol) -100 % of control.

With `CN1CCN(c2ccc([N+](=O)[O-])c3no[n+]([O-])c23)CC1`, the T/C by setting is: (dose: 20.0 mg/kg/injection, schedule: Q01DX010 (sc), vehicle: saline with Tween-80) 45 % of control; (dose: 40.0 mg/kg/injection, schedule: Q01DX010 (sc), vehicle: saline with Tween-80) 69 % of control.

As to `Cn1ccc(=Nc2ccc(NC(=O)c3ccc(N=c4ccn(C)c5ccc([N+](=O)[O-])cc45)cc3[N+](=O)[O-])cc2)cc1`, the T/C (dose: 300.0 mg/kg/injection, schedule: Q04DX003 (sc), vehicle: saline + Tween-80 + alcohol) is 123 % of control; the T/C (dose: 1200.0 mg/kg/injection, schedule: Q04DX003 (sc), vehicle: saline + Tween-80 + alcohol) is 117 % of control; the T/C (dose: 2400.0 mg/kg/injection, schedule: Q04DX003 (sc), vehicle: saline + Tween-80 + alcohol) was 69 % of control.

As for `CC[C@@H](C)[C@@H]1NC(=O)C(NC(=O)C(CC(C)C)N(C)C(=O)C2CCCN2C(=O)C(C)O)C(C)OC(=O)C(Cc2ccc(OC)cc2)N(C)C(=O)C2CCCN2C(=O)C(CC(C)C)NC(=O)C(C)C(=O)C(C(C)C)OC(=O)C[C@H]1O` (stereo partly specified), the T/C is, setting by setting: (dose: 300.0 micrograms/kg/injection, schedule: Q04DX003 (sc), vehicle: distilled water + alcohol) 91 % of control; (dose: 600.0 micrograms/kg/injection, schedule: Q04DX003 (sc), vehicle: distilled water + alcohol) 157 % of control; (dose: 1200.0 micrograms/kg/injection, schedule: Q04DX003 (sc), vehicle: distilled water + alcohol) 27 % of control.

Turning to `C[C@@H](CN1CC(=O)NC(=O)C1)N1CC(=O)NC(=O)C1`, the T/C by setting is: under setting [1], 63 % of control; under setting [2], 81 % of control; under setting [3], 39 % of control.

On to `N#CCCSC(=S)C1CCCC1=N` (stereo unspecified), for which the T/C reads like this: under setting [4], 76 % of control; under setting [5], 87 % of control; under setting [6], 76 % of control; (dose: 2400.0 mg/kg/injection, schedule: Q04DX003 (sc), vehicle: saline with Tween-80) 85 % of control.

In the case of `COc1cc(C(=O)N/N=C/c2cccc([N+](=O)[O-])c2)cc(OC)c1OC`, the T/C was 178 % of control (dose: 150.0 mg/kg/injection, schedule: Q04DX003 (sc), vehicle: saline with Tween-80); 114 % of control under setting [4]; 67 % of control under setting [5]; 108 % of control under setting [6].
